This is an account of results in ChEMBL document CHEMBL6114958, “Progress in the study of anti-Alzheimer's disease activity of pyrimidine-containing bioactive molecules” (Eur J Med Chem, 2025).

Experiment [1] has as its target Acetylcholinesterase (Electrophorus electricus) (UniProt O42275). In words: Inhibition of electric eel AChE using acetylthiocholine as substrate at 9 uM by Ellman's spectrophotometric method relative to control.
Experiment [2] deals with T1, Amine oxidase [flavin-containing] A (Homo sapiens, UniProt P21397).
T1 sequence (P21397 whole entry): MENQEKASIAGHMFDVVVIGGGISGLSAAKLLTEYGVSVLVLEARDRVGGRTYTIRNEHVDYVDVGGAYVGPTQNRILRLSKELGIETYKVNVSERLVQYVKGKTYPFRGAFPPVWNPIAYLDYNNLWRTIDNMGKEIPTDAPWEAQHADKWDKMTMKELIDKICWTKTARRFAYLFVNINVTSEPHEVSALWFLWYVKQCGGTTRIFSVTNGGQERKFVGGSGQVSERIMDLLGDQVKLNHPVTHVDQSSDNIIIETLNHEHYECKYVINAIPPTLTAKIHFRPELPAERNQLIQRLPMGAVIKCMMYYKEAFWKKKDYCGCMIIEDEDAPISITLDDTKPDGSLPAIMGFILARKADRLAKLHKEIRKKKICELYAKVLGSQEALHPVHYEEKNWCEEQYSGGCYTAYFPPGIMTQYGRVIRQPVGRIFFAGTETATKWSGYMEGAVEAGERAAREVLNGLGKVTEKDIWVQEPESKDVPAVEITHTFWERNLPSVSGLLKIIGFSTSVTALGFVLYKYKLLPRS
Nature of the experiment: Inhibition of recombinant human MAO-A assessed as fluorescence measured after 30 mins by Amplex Red reagent assay.

Experiment [3] concerns the target T2, Amine oxidase [flavin-containing] B (Homo sapiens, UniProt P27338).
T2 sequence (P27338 whole entry): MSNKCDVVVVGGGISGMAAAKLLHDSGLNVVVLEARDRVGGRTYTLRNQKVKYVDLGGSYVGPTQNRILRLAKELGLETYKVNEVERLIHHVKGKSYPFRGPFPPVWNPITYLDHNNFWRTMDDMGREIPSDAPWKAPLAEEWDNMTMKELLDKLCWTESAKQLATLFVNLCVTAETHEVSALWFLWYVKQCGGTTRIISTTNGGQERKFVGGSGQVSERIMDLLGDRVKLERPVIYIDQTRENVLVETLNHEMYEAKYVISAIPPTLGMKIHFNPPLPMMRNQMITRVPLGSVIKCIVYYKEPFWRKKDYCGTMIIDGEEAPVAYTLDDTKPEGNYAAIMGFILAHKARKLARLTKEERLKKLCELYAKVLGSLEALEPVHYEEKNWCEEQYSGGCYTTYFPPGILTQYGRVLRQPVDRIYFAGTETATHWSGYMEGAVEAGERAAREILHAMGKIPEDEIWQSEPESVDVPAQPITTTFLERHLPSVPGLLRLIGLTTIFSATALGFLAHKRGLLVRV
In words: Inhibition of recombinant human MAO-B assessed as fluorescence measured after 30 mins by Amplex Red reagent assay.

Experiment [4] deals with T3, Acetylcholinesterase (Homo sapiens, UniProt P22303). Nature of the experiment: Inhibition of Acetylcholinesterase (unknown origin) activity measured after 15 mins by Amplex Red reagent assay.
T3 sequence (P22303 whole entry): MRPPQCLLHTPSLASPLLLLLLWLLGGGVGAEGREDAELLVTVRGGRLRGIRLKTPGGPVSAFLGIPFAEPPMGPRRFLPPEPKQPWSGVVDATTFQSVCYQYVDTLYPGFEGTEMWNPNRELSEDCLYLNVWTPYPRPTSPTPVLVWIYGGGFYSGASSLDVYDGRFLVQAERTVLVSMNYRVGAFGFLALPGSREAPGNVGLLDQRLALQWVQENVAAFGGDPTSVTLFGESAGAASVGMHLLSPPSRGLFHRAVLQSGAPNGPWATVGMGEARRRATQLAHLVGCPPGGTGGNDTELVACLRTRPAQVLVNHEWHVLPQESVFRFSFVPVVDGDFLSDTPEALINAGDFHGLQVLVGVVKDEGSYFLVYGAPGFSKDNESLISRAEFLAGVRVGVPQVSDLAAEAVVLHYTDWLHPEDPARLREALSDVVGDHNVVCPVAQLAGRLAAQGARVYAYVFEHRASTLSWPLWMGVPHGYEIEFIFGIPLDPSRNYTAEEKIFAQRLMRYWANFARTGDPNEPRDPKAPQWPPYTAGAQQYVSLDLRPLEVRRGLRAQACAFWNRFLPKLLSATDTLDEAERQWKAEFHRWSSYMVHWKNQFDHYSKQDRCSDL
The target in experiment [5] is T4, Cholinesterase (Homo sapiens, UniProt P06276). In words: Inhibition of BChE (unknown origin) using butyrylthiocholine iodide as substrate by Ellman's method.
T4 sequence (P06276 whole entry): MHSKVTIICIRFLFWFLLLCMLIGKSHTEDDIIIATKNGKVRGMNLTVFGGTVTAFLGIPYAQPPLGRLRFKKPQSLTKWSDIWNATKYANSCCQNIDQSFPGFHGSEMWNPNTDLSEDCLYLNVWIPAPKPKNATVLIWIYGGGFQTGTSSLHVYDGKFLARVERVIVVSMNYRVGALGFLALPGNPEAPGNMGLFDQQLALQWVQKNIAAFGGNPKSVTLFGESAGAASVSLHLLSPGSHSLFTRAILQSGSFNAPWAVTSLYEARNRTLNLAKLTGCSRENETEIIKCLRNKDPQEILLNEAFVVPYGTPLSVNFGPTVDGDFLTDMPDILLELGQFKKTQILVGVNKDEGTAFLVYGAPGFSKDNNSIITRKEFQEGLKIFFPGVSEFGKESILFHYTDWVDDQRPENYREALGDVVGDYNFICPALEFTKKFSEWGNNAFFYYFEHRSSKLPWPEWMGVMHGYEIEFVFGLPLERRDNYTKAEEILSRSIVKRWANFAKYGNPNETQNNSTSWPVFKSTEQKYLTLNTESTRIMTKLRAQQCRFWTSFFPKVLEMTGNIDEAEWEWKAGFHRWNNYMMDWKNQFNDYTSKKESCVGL
For experiment [6], the target named is T3, Acetylcholinesterase. Nature of the experiment: Inhibition of AChE (unknown origin).
In experiment [7] the target is High affinity cGMP-specific 3',5'-cyclic phosphodiesterase 9A (Homo sapiens, UniProt O76083). Nature of the experiment: Inhibition of PDE9 (unknown origin).
Sequence of High affinity cGMP-specific 3',5'-cyclic phosphodiesterase 9A (O76083 whole entry): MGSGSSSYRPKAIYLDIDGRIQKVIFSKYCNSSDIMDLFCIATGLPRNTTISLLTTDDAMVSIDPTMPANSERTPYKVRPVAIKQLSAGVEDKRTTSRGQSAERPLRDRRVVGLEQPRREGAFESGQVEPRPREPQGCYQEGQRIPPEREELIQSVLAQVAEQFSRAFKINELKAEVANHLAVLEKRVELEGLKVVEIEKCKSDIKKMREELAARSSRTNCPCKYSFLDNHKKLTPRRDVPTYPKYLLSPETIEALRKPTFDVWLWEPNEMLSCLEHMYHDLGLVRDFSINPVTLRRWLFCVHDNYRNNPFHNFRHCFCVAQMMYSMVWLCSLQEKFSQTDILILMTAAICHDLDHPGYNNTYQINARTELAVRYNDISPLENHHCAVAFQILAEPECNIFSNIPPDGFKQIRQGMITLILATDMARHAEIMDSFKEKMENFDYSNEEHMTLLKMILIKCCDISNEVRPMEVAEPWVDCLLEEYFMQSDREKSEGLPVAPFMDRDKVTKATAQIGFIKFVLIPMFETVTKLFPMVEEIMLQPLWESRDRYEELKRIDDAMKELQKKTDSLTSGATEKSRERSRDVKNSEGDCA
Experiment [8] addresses Histone deacetylase 1 (Homo sapiens, UniProt Q13547). Nature of the experiment: Inhibition of HDAC1 (unknown origin).
The target of experiment [9] is Histone deacetylase 2 (Homo sapiens, UniProt Q92769). Nature of the experiment: Inhibition of HDAC2 (unknown origin).
Sequence of Histone deacetylase 2 (Q92769 whole entry): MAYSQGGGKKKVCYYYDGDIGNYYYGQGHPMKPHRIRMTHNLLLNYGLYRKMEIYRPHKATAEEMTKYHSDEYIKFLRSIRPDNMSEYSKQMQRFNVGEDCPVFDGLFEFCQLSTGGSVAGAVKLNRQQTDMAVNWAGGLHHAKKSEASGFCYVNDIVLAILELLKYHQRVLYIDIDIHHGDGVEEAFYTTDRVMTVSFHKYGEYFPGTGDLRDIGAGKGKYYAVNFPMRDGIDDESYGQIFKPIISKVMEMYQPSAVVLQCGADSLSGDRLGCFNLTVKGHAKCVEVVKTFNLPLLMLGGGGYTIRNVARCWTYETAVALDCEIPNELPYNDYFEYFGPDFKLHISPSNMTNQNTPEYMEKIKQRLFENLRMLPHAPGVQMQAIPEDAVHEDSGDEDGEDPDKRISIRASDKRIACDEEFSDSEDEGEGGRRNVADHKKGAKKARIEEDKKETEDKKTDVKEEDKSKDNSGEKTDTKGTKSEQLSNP
Experiment [10] has as its target T5, Protein deacetylase HDAC6 (Homo sapiens, UniProt Q9UBN7).
T5 sequence (Q9UBN7 whole entry): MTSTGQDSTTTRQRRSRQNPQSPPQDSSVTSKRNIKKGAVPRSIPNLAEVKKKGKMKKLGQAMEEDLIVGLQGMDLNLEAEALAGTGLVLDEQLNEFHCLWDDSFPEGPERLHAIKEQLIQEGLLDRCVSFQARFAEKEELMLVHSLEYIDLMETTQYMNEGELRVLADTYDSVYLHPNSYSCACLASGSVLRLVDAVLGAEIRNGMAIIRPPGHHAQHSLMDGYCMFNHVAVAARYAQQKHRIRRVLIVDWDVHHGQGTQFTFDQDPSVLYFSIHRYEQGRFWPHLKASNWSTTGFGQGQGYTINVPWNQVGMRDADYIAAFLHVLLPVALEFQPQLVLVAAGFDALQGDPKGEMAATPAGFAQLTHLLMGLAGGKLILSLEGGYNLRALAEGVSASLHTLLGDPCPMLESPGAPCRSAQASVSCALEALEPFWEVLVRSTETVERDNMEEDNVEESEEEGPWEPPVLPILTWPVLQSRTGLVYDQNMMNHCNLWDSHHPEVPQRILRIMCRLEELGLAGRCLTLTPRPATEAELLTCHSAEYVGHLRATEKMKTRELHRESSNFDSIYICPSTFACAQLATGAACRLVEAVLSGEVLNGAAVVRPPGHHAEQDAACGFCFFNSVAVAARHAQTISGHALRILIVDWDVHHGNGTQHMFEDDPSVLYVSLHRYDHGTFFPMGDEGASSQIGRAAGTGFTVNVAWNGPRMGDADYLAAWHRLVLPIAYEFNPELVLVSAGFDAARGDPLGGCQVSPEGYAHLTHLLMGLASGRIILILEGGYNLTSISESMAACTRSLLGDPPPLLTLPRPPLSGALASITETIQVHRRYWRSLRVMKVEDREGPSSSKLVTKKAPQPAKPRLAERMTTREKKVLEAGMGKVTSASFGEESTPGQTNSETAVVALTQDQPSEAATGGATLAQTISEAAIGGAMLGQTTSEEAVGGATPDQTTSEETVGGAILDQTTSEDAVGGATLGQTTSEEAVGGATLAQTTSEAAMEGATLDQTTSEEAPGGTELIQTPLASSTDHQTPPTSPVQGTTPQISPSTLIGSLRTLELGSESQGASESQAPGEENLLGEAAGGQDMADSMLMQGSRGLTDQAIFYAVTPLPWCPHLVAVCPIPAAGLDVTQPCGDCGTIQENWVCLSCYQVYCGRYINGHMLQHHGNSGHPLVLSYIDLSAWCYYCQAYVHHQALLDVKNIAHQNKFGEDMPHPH
In words: Inhibition of HDAC6 (unknown origin).

Experiment [11] deals with T6, Acetylcholinesterase (Electrophorus electricus, UniProt O42275). In words: Inhibition of electric eel AChE using ACTI as substrate measured after 30 mins by spectrometric analysis.
T6 sequence (O42275 whole entry): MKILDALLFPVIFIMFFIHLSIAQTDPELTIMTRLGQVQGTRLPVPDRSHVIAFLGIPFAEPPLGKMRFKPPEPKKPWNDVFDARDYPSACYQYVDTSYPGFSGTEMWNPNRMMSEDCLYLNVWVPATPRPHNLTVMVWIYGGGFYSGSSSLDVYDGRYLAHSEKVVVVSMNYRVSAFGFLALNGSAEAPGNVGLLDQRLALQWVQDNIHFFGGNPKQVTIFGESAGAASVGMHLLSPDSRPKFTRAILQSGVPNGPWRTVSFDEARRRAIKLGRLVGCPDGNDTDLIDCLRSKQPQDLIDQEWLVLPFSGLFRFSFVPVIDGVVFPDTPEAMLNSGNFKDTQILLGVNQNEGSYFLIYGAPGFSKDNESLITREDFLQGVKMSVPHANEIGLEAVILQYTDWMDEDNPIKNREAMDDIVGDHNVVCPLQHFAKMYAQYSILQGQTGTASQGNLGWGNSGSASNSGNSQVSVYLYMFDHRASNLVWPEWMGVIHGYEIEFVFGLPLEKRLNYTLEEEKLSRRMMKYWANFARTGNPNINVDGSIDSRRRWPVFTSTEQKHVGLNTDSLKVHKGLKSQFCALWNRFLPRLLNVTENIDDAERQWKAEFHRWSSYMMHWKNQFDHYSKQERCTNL
The target in experiment [12] is T4, Cholinesterase. Nature of the experiment: Inhibition of human BChE by Ellman's method.
In experiment [13] the target is T1, Amine oxidase [flavin-containing] A. In words: Inhibition of human MAO-A.
The target in experiment [14] is T2, Amine oxidase [flavin-containing] B. Nature of the experiment: Inhibition of human MAO-B.
The target in experiment [15] is T6, Acetylcholinesterase. Nature of the experiment: Inhibition of electric eel AChE.
For experiment [16], the target named is T3, Acetylcholinesterase. In words: Inhibition of recombinant human AChE using acetylthiocholine iodide as substrate by Ellman's method.
A short description of experiment [17]: Inhibition of Calcium channel (unknown origin). Also on record: species or system Homo sapiens.
In experiment [18] the target is T3, Acetylcholinesterase. In words: Inhibition of human AChE by Ellman's method.
Experiment [19] has as its target Cholinesterase (Equus caballus, UniProt P81908). In words: Inhibition of equine serum BChE using butyrylthiocholine iodide measured after 25 mins by Ellman's spectrophotometric method.
The nature of experiment [20]: Inhibition of Cysteine asparaginase (unknown origin). Also on record: species or system Homo sapiens.
Experiment [21] deals with Beta-secretase 1 (Homo sapiens, UniProt P56817). In words: Inhibition of BACE1 (unknown origin).
Experiment [22] has as its target T3, Acetylcholinesterase. In words: Inhibition of AChE (unknown origin) using acetylthiocholine iodide as substrate by Ellman's method.
In experiment [23] the target is T4, Cholinesterase. Nature of the experiment: Inhibition of BChE (unknown origin).

Sequence of Histone deacetylase 1 (Q13547 whole entry): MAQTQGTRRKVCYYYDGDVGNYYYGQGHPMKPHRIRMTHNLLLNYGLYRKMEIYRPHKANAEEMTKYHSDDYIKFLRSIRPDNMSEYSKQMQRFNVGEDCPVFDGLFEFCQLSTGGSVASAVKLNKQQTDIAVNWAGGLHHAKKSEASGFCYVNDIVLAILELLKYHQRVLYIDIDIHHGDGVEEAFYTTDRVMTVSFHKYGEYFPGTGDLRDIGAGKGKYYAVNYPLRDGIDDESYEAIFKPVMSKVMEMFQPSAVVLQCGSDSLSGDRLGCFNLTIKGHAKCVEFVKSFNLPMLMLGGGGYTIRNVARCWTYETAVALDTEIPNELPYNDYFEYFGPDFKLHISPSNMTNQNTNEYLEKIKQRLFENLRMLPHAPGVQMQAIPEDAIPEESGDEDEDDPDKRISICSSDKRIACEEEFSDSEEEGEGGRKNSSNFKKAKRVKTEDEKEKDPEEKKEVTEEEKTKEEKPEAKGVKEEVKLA
Sequence of Acetylcholinesterase (Electrophorus electricus) (O42275 24-633 limits assumed): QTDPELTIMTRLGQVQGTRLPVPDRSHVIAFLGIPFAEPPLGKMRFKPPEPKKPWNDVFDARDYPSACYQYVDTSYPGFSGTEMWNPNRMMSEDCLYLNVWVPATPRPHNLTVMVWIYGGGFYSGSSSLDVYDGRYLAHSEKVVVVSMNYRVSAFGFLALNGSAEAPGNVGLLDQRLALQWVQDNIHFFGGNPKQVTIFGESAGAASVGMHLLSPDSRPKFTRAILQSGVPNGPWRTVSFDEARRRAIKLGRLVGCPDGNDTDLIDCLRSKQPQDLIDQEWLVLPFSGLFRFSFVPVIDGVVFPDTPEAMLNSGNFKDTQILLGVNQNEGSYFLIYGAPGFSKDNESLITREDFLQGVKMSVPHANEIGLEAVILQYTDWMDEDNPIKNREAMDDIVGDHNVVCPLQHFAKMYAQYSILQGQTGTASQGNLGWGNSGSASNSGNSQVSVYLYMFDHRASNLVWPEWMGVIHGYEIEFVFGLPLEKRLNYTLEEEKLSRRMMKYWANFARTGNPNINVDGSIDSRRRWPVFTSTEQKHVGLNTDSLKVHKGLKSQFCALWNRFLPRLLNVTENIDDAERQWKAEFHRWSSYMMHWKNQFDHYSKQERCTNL
Sequence of Cholinesterase (Equus caballus, UniProt P81908) (P81908 whole entry): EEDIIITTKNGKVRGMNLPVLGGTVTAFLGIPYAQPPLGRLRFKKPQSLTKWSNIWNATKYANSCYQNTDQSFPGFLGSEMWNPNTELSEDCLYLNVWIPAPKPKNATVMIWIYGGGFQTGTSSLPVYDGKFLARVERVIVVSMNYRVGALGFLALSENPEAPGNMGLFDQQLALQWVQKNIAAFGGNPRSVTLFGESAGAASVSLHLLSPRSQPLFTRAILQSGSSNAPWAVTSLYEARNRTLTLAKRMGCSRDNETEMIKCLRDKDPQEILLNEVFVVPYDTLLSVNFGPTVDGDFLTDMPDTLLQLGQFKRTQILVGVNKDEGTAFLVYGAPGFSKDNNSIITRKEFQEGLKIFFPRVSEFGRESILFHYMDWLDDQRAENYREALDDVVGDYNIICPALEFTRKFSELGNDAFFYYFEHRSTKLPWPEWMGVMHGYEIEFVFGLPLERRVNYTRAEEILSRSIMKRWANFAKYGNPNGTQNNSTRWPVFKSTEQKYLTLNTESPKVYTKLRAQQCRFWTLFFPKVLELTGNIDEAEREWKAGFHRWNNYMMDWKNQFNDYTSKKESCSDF

For `O=C(NCCCCCCNc1ncccn1)c1ccccc1`, in experiment [1], the inhibition worked out at 2.5%.

On to `C#CCOc1ccc(-c2cc(-c3ccc(OCCN4CCOCC4)cc3)nc(N)n2)cc1`, for which the half-inhibitory concentration (IC50) in experiment [2] was 18 nM; in experiment [3] it was above 50000 nM; in experiment [4] it was 30500 nM.

Consider `N#Cc1c(N)nc(SCCCSc2nc(N)c(C#N)c(-c3ccc(Br)cc3)n2)nc1-c1ccc(Br)cc1`, for which, in experiment [5], the IC50 worked out at 12200 nM.

On to `CCOC(=O)C1=C(C)N=C2SC(c3ccc([N+](=O)[O-])cc3)=NN2C1c1ccc(C=O)cn1` (stereo not drawn), for which, in experiment [6], the midpoint of inhibition, the IC50, lay at 82 nM.

For `C[C@@H]1CN(Cc2ccc(CC(=O)CNO)cc2)C[C@H]1c1nc2c(cnn2C2CCOCC2)c(=O)[nH]1`, the concentration for half-maximal inhibition (IC50) in [7] was 8 nM; in experiment [8] it was 138 nM; in [9] it was 1250 nM; in [10], 508 nM.

Consider `COc1cccc(C2C3=C(CCCC3=O)Oc3nc(C)[nH]c(=O)c32)c1` (stereo not drawn), for which it took 6500 nM to reach half-maximal inhibition in experiment [11] (IC50).

With `N#CC1C(N)N2CCCNC2C(C#N)C12C(=O)Nc1ccc(Br)cc12` (stereo not drawn), in experiment [12], the IC50 came to 17500 nM.

On to `C#CCCCOc1ccc(-c2cc(-c3ccc(OCCN4CCCC4)cc3)nc(-c3ccccc3)n2)cc1`, for which the IC50 in experiment [13] was 750 nM; in experiment [14], above 50000 nM; in experiment [15], 2190 nM.

In the case of `CCN(CCCCCn1c(C)cc(=O)n(CCCCCN(CC)Cc2ccccc2C#N)c1=O)Cc1ccccc1C#N`, the IC50 in experiment [16] worked out at 7300 nM.

For `C#CCNc1ccc(-c2cc(-c3ccc(OCCN4CCOCC4)cc3)nc(N)n2)cc1`, the IC50 in [2] turned out to be 9940 nM; in experiment [3], 40 nM; in [4], 7210 nM.

As for `CC(c1nc2c(cnn2C2CCCC2)c(=O)[nH]1)N1CC(Cc2ccc(C(=O)Nc3ccccc3N)cc2)C1` (stereo not drawn), the IC50 in experiment [7] was 57 nM; in experiment [8], 99 nM; in experiment [9], 545 nM; in experiment [10], above 10000 nM.

With `CCOC(=O)C1=C(C)N(CCC2CCN(Cc3ccccc3)CC2)C(=O)NC1c1coc2c(Cl)cc(Cl)cc2c1=O` (stereo not drawn), the IC50 in experiment [17] worked out at 1400 nM.

In the case of `c1ccc(CNCCCCCCNc2ncccn2)cc1`, the inhibition in [1] turned out to be 92.9%.

As to `N#CC1C(N)N2CCCNC2C(C#N)C12C(=O)Nc1ccccc12` (stereo not drawn), it took 4040 nM to reach half-maximal inhibition in experiment [18] (IC50).

On to `COC(=O)/C1=C/N(C(C)C)CCc2nc(-c3ccccc3)[nH]c(=O)c2C1`, for which it took 1300 nM to reach half-maximal inhibition in experiment [19] (IC50).

In the case of `C#CCCCOc1ccc(-c2cc(-c3ccc(OCCN4CCOCC4)cc3)nc(-c3ccccc3)n2)cc1`, the concentration for half-maximal inhibition (IC50) in experiment [13] turned out to be 740 nM; in [14], 8600 nM; in experiment [15] it was 17500 nM.

With `CC(c1nc2c(cnn2C2CCCC2)c(=O)[nH]1)C1CC(Cc2ccc(C(=O)NO)cc2)C1` (stereo not drawn), the half-maximal inhibitory concentration (IC50) in experiment [7] came to 107 nM; in experiment [8], 593 nM; in [9] it was 3530 nM; in experiment [10], 40 nM.

For `CC1(C)CC(=O)c2c(N)nc(Nc3ccccc3)nc2C1`, in [20], inhibition was half-maximal at 22 nM (IC50).

For the compound `CCN(CCCCCn1c(C)cc(=O)n(CCCCCN(CC)Cc2cccc(C(=O)OC)c2)c1=O)Cc1cccc(C(=O)OC)c1`, the IC50 in experiment [16] turned out to be 290 nM.

The compound `COc1cccc(-c2csc(NC(=O)CSc3nc(N)cc(N)n3)n2)c1` gave an IC50 in experiment [21] of 1400 nM.

Consider `CN(CCCOc1ccc([N+](=O)[O-])cc1)C(=O)c1cnc(N2CCN(c3ccc(C(=O)N4CCOCC4)cc3[N+](=O)[O-])CC2)nc1`, for which the IC50 in experiment [16] is 900 nM.

Take `COc1cccc(-c2nc(SCCCSc3nc(N)c(C#N)c(-c4cccc(OC)c4)n3)nc(N)c2C#N)c1`: the IC50 in experiment [22] turned out to be 5720 nM.

With `Cc1cccc(-c2nccc(N3CCOCC3)n2)c1`, the values for the IC50 in [6] and in [23] were 430 nM and 2500 nM, respectively.

Regarding `Cc1ccc(O)c(CNc2c(N)n(C)c(=O)n(C)c2=O)c1`, in experiment [18], the IC50 amounted to 4.65 nM.

In experiment [19], `CCN(CC)CCCNC1NC(c2ccccc2)=NC2=C1C/C(C(=O)OC)=C\N(C(C)C)CC2` (stereo not drawn) came in with an IC50 of 105 nM.
